Experimental data published in patent US11780845B2 (Relay Therapeutics, Inc., priority 2019, dated 2023).

Assays:
FGFR2 = FGFR2 (Homo sapiens (Human), UniProt P21802); experiment: FGFR2 Biochemical Caliper Assay
Protocol: Compounds of the present invention were also tested in a FGFR2 Biochemical Caliper Assay. Compounds were prepared in 10 mM DMSO solution and serially diluted into 11 concentrations by 3-fold dilution. […] 5 uL of ATP solution (100 uM) was added to start the reaction and the plate was incubated for 90 minutes, then 70 uL of stopping buffer (0.5M EDTA) was added to terminate the reaction. Each well was analyzed using EZ reader.

SNU16 cells = experiment: SNU16 Cancer Cell Line Proliferation Assay; type: cell-based; settings: Homo sapiens; SNU-16 cells
Protocol: Compounds of the present invention were also tested in a SNU16 Cancer Cell Line Proliferation Assay, Test compounds were prepared in a 10 mM DMSO stock solution. 45 uL of stock solution was transferred to a 384 well plate, and a 3-fold 11-point dolution was performed. SNU16 cells in a 384 well cell culture plate were seeded and incubated at 37 degrees for 24 hours. 40 nL of each concentration of compound was transferred from the compound plate to a corresponding well in the cell culture plate by Echo550 liquid handler. The plates were incubated for 96 hours, then equilibrated to room temperature for 15 minutes. 20 uL of CellTiter Glo reagent is added into each well, then the plate was shaken gently for 30 minutes at room temperature. Chemiluminescence was then read on an EnVision reader.

Chain of FGFR2 (P21802 22-821): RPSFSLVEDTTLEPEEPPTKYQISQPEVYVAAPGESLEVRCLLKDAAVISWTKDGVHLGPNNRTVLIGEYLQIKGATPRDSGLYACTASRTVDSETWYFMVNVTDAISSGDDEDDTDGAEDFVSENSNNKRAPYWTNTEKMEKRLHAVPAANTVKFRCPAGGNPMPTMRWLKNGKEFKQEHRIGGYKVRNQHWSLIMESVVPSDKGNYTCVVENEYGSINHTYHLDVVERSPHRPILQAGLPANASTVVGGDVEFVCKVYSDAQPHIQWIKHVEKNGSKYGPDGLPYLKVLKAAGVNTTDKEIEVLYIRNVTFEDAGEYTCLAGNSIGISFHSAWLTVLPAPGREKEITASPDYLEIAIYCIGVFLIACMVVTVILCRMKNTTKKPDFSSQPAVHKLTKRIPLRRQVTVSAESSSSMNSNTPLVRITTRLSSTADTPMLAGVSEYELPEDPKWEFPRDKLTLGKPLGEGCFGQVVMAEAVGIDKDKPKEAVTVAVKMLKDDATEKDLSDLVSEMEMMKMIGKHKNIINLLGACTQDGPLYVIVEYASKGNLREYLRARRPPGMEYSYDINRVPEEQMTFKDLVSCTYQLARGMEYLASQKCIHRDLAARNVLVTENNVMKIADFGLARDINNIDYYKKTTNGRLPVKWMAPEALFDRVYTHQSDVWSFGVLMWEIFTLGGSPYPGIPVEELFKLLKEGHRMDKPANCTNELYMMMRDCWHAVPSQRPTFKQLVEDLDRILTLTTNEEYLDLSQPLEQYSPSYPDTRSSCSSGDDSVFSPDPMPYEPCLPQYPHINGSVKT

| Compound | IC50 (FGFR2) [nM] | IC50 (SNU16 cells) [nM] |
| --- | --- | --- |
| C=C(C)C(=O)Nc1ccc(-c2c(-c3ccc(C(=O)N4CCCC4)cc3)c3c(N)ncnc3n2C)cc1 [Example 95] | 100 to 250 | ≤ 100 |
| C=C(C)C(=O)Nc1ccc(-c2c(-c3ccc(Oc4ncc(C)cn4)c(F)c3)c3c(N)ncnc3n2C)cc1 [Example 96] | < 100 | ≤ 100 |
| C=CC(=O)Nc1ccc(-c2c(-c3ccc(Oc4ncc(NC)cn4)c(OC)c3)c3c(N)ncnc3n2C)cc1 [Example 98] | < 100 | ≤ 100 |
| C=C(C)C(=O)Nc1ccc(-c2c(-c3ccc(Oc4ccn(C)n4)c(OC)c3)c3c(N)ncnc3n2C)cc1 [Example 100] | 250 to 1000 | 100 to 250 |
| C=CC(=O)Nc1ccc(-c2c(-c3ccc(Oc4ncc(F)cn4)c(OC)c3)c3c(N)ncnc3n2C)cc1 [Example 101] | < 100 | ≤ 100 |
| C=CC(=O)Nc1ccc(-c2c(-c3ccc(Oc4ncc(Cl)cn4)cc3)c3c(N)ncnc3n2C)cc1 [Example 103] | < 100 | ≤ 100 |
| C=C(C)C(=O)Nc1ccc(-c2c(-c3cc(F)c(Oc4ncccn4)c(F)c3)c3c(N)ncnc3n2C)cc1 [Example 110] | < 100 | ≤ 100 |
| C=CC(=O)Nc1ccc(-c2c(-c3ccc(Oc4ncc(C(F)F)cn4)c(OC)c3)c3c(N)ncnc3n2C)cc1 [Example 113] | < 100 | ≤ 100 |
| C=C(C)C(=O)Nc1ccc(-c2c(-c3ccc(Oc4ccc(F)cn4)c(F)c3)c3c(N)ncnc3n2C)cc1 [Example 114] | 250 to 1000 | 100 to 250 |
| C=C(C)C(=O)Nc1ccc(-c2c(-c3ccc(Oc4ncc(F)cn4)c(F)c3)c3c(N)ncnc3n2C)cc1 [Example 116] | < 100 | ≤ 100 |
| C=C(C)C(=O)Nc1ccc(-c2c(-c3ccc(Oc4ccc(OC)c(F)n4)cc3)c3c(N)ncnc3n2C)cc1 [Example 117] | 250 to 1000 | 100 to 250 |
| C=CC(=O)Nc1ccc(-c2c(-c3cc(C)c(Oc4ncccn4)c(OC)c3)c3c(N)ncnc3n2C)cc1 [Example 120] | < 100 | ≤ 100 |
| C=CC(=O)Nc1ccc(-c2c(-c3ccc(Oc4ccc(Cl)c(C)n4)cc3)c3c(N)ncnc3n2C)cc1 [Example 123] | < 100 | ≤ 100 |
| C=CC(=O)Nc1ccc(-c2c(-c3ccc(C(=O)N4CCCC4)cc3)c3c(N)ncnc3n2C)cc1 [Example 128] | < 100 | ≤ 100 |
| C=C(C)C(=O)Nc1ccc(-c2c(-c3ccc(C(=O)N4CC(C)C4)cc3)c3c(N)ncnc3n2C)cc1 [Example 135] | 250 to 1000 | 100 to 250 |
| C=C(C)C(=O)Nc1ccc(-c2c(-c3ccc(C(=O)N4CCC(F)(F)C4)cc3)c3c(N)ncnc3n2C)cc1 [Example 137] | 250 to 1000 | ≤ 100 |
| C=C(C)C(=O)Nc1ccc(-c2c(-c3ccc(Cn4nc(C)cc4C)cc3)c3c(N)ncnc3n2C)cc1 [Example 140] | 250 to 1000 | 100 to 250 |
| C=C(C)C(=O)Nc1ccc(-c2c(-c3ccc(C(=O)N4CCCCC4)cc3)c3c(N)ncnc3n2C)cc1 [Example 141] | < 100 | ≤ 100 |
| C=C(C)C(=O)Nc1ccc(-c2c(-c3ccc(C(=O)N(C)C)nc3)c3c(N)ncnc3n2C)cc1 [Example 143] | 1000 to 100000 | 250 to 1000 |
| C=CC(=O)Nc1ccc(-c2c(-c3ccc(Oc4ccn(C)n4)c(OC)c3)c3c(N)ncnc3n2C)cc1 [Example 145] | < 100 | ≤ 100 |
| C=CC(=O)Nc1ccc(-c2c(C3=CCC(C(=O)NC)CC3)c3c(N)ncnc3n2C)cc1 (centres unmarked) [Example 148] | < 100 | ≤ 100 |
| C=C(C)C(=O)Nc1ccc(-c2c(-c3ccc(S(=O)(=O)C4CCCC4)cc3)c3c(N)ncnc3n2C)cc1 [Example 150] | < 100 | ≤ 100 |
| C=C(C)C(=O)Nc1ccc(-c2c(-c3ccc(C(=O)N(C)C)cc3)c3c(N)ncnc3n2C)cc1 [Example 152] | 250 to 1000 | 250 to 1000 |
| C=C(C)C(=O)Nc1ccc(-c2c(-c3ccc(C(=O)N4CC5CCCC5C4)cc3)c3c(N)ncnc3n2C)cc1 (centres unmarked) [Example 154] | 100 to 250 | ≤ 100 |
| CC#CC(=O)Nc1ccc(-c2c(-c3ccc(C(=O)N4CCCC4)cc3)c3c(N)ncnc3n2C)cc1 [Example 155] | < 100 | ≤ 100 |
| C=C(C)C(=O)Nc1ccc(-c2c(-c3ccc(C(=O)N4CCCC4)c(OC)c3)c3c(N)ncnc3n2C)cc1 [Example 156] | 250 to 1000 | 100 to 250 |
| C=C(C)C(=O)Nc1ccc(-c2c(-c3ccc(C(=O)N4CCC(O)C4)cc3)c3c(N)ncnc3n2C)cc1 (centres unmarked) [Example 157] | 250 to 1000 | 250 to 1000 |
| C=C(C)C(=O)Nc1ccc(-c2c(-c3ccc([S+]([O-])C4CC4)cc3)c3c(N)ncnc3n2C)cc1 (centres unmarked) [Example 160] | 250 to 1000 | 250 to 1000 |
